Experimental data from ChEMBL document CHEMBL1201862, “PubChem BioAssay data set” (2004).
Calls of active or inactive are those of the source.

What was measured:
[1] = system: HEK293; test: cells; conditions: Homo sapiens
[2] = off-target signal loss in HeLa-CEM21 co-culture – HeLa F-luc CTL cells, cherry-picked, counter-screen for HIV-1 Env fusion inhibitor project, dose response (AID 652040); format: functional, cell-based;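 further: potency for signal decrease marking cytotoxic or nonspecific inhibition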
[3] = system: Vero; test: cells; format: functional; conditions: Chlorocebus sabaeus
[4] = system: HEK293; test: cells; conditions: Homo sapiens; remark: listed apart in the source
[5] = inhibitors of clade B AD8 Env fusion, dose response, cell-based, cherry-pick (AID 652062); format: functional;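 further: luciferase signal from cell-cell fusion driven by HIV-1 clade B AD8 Env; potency is for inhibitors of fusion seen as a drop in luminescence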
[6] = ZM109 Env clade C HIV-1 fusion inhibitors, dose response, HeLa effector, CEM target cells, luciferase, cherry-pick (AID 652058); format: functional, cell-based
[7] = target: T1, Polyadenylate-binding protein 1 (Homo sapiens, UniProt P11940); test: PABP1 MLLE–PAM2 binding inhibitor potency, dose response, biochemical, fluorescence polarization, FITC-PAM2 peptide (AID 602259); format: functional; conditions: read-out: IC50_Mean
[8] = target: T1, Polyadenylate-binding protein 1; test: PABP1 MLLE–PAM2 interaction inhibitors, dose response, miRNA deadenylation inhibitor project, biochemical, fluorescence polarization, Cy5-PAM2 peptide, secondary (AID 602260); format: functional; conditions: read-out: IC50_Mean
[9] = inhibitors of HIV Env-driven cell fusion, dose response, cherry-pick (AID 652057); format: functional, cell-based
[10] = target: Induced myeloid leukemia cell differentiation protein Mcl-1 (Homo sapiens, UniProt Q07820); format: functional
[11] = CEM21 lymphoblast cell cytotoxicity, dose response, cytotoxicity control for viral fusion inhibitor project, CellTiter-Glo luminescence, cherry-picked (AID 652042); format: functional, cell-based;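 further: potency for signal decrease meaning cytotoxicity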
[12] = target: Beta-lactamase (Salmonella choleraesuis (strain SC-B67), UniProt Q5J463); test: Epi-absorbance-based counterscreen for selective VIM-2 inhibitors: dose response biochemical high throughput screening assay to identify inhibitors of TEM-1 serine-beta-lactamase.
[13] = target: T2, Beta-lactamase (Pseudomonas aeruginosa, UniProt Q79MP6); test: […] counterscreen for selective VIM-2 inhibitors: dose response biochemical high throughput screening assay to identify inhibitors of IMP-1 metallo-beta-lactamase.
[14] = target: T2, Beta-lactamase; test: IMP-1 metallo-beta-lactamase inhibitors, dose response, selectivity assay for VIM-2 inhibitor project, biochemical, epi-absorbance (AID 1920)
[15] = target: T3, Microphthalmia-associated transcription factor (Homo sapiens, UniProt O75030); test: TRPM1 promoter luciferase signal decrease, dose response, MITF inhibitor project, cell-based, SK-MEL-5, cherry-picked, set 3 (AID 493073); format: functional
T3 sequence (O75030 whole entry): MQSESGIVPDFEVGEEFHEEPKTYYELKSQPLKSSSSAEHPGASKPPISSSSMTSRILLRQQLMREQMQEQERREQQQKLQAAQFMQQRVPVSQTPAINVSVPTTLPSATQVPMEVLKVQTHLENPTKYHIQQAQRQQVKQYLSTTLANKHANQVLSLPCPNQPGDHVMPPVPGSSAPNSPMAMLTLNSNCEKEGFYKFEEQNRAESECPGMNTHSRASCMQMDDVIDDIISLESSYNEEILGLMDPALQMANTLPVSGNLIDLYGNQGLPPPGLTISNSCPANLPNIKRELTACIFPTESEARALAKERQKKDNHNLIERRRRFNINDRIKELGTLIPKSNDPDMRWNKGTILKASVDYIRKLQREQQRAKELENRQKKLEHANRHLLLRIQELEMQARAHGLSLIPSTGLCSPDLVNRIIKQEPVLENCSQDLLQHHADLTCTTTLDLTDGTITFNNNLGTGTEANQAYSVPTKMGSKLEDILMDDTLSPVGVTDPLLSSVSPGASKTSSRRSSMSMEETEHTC

[16] = A375 melanoma cell cytotoxicity, dose response, counter-screen for MITF inhibitor project, CellTiter-Glo luminescence, dry powder, set 2 (AID 624489); format: functional, cell-based; conditions: A-375;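 further: actives are compounds lowering A375 viability meaning general cytotoxicity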
[17] = system: INS1; test: beta cell apoptosis inhibitors, cytokine rescue, dose response, luminescence, retest (AID 449756); format: functional, cell-based; conditions: Rattus norvegicus;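 further: cell death triggered by IL-1 beta plus TNF-alpha plus IFN-gamma mixture; protective hits raise ATP signal compared with cytokine alone wells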
[18] = target: Disintegrin and metalloproteinase domain-containing protein 17 (Homo sapiens, UniProt P78536); test: exosite inhibitors of ADAM17, dose response, biochemical (AID 743260)
[19] = ADAM10 protease inhibitors, dose response, selectivity assay for ADAM17 exosite inhibitor project, biochemical, FRET peptide substrate, recombinant human ADAM10 (AID 743259);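 further: ADAM10 enzyme cleaving a FRET peptide substrate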
[20] = target: T4, Fructose-bisphosphate aldolase (Mycobacterium tuberculosis, UniProt P9WQA3); test: Fluorescence-based biochemical high throughput dose response assay for inhibitors of the fructose-bisphosphate aldolase (FBA) of M. tuberculosis.; format: functional
T4 sequence (P9WQA3 whole entry): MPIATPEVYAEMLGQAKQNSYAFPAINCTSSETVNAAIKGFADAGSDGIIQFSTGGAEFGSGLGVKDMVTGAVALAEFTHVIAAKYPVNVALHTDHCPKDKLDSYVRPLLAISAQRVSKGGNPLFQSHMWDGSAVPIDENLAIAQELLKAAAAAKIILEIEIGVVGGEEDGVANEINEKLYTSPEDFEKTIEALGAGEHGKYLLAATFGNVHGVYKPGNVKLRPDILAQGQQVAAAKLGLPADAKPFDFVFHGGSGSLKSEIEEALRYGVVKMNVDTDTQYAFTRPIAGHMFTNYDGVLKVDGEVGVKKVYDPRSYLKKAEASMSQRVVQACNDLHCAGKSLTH

[21] = target: Beta-galactosidase (Escherichia coli, UniProt Q8VNN2); test: Dose response counterscreen for EBI2 assay utilizing the enzyme, b-galactosidase.; format: functional
[22] = target: T5, Heat shock factor protein 1 (Mus musculus, UniProt P38532); test: inhibition of MG132-induced HSE-luciferase signal, confirmation, cell-based, NIH3T3, luminescence, dose retest (AID 2382); format: functional;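 further: NIH3T3 fibroblasts with HSF1-driven luciferase reporter stressed by proteasome inhibitor MG132; luminescence from HSF1-driven luciferase expression after 8 hours of MG132 stress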
T5 sequence (P38532 whole entry): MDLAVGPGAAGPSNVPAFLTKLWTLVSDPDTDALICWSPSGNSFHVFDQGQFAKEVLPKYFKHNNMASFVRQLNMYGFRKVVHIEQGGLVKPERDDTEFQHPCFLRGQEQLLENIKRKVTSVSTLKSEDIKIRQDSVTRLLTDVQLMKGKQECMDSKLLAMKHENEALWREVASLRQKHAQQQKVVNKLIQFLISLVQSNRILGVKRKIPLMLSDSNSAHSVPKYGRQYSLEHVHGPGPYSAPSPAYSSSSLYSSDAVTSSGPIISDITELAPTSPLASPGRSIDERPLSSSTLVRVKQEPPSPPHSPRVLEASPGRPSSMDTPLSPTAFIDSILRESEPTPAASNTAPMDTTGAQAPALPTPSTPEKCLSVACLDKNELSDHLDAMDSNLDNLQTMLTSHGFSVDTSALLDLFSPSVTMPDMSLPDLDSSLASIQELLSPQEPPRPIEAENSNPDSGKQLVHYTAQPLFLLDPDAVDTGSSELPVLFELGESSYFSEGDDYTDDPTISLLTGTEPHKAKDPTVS

[23] = target: T6, Rac GTPase-activating protein 1 (Homo sapiens, UniProt Q9H0H5); test: MgcRacGAP GTPase-activating activity inhibitors, confirmation, biochemical, ADP Hunter fluorescence, primary and confirmatory (AID 624330); format: functional
T6 sequence (Q9H0H5 whole entry): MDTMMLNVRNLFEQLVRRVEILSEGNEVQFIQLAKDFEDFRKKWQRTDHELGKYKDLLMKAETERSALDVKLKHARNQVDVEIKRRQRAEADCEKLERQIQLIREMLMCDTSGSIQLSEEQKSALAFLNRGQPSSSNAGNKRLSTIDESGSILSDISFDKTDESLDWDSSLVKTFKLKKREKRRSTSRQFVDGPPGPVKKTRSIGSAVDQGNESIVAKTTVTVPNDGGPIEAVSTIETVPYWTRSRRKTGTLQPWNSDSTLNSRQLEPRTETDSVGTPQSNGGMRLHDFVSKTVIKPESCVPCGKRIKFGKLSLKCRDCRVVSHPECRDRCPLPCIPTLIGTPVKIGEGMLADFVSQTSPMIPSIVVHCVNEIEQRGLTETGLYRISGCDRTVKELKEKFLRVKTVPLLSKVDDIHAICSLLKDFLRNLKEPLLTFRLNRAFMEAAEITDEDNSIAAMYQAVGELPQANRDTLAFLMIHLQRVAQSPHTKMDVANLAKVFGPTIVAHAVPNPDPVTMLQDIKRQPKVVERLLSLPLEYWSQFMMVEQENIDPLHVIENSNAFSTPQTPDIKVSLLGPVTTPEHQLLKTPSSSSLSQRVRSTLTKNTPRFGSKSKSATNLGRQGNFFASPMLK

[24] = target: Large T antigen (Simian virus 40, UniProt P03070); format: functional, Betapolyomavirus macacae;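 further: Confirmatory-stage PubChem screen for compounds that inhibit SV40 T antigen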
[25] = HeLa cell cytotoxicity, dose response, cytotoxicity control for MgcRacGAP inhibitor project (AID 624300); format: functional
[26] = target: T7, High affinity choline transporter 1 (Homo sapiens, UniProt Q9GZV3); test: CHT inhibitors, dose response, cell-based, 5-point CRC, membrane potential dye (AID 504840); format: functional
T7 sequence (Q9GZV3 whole entry): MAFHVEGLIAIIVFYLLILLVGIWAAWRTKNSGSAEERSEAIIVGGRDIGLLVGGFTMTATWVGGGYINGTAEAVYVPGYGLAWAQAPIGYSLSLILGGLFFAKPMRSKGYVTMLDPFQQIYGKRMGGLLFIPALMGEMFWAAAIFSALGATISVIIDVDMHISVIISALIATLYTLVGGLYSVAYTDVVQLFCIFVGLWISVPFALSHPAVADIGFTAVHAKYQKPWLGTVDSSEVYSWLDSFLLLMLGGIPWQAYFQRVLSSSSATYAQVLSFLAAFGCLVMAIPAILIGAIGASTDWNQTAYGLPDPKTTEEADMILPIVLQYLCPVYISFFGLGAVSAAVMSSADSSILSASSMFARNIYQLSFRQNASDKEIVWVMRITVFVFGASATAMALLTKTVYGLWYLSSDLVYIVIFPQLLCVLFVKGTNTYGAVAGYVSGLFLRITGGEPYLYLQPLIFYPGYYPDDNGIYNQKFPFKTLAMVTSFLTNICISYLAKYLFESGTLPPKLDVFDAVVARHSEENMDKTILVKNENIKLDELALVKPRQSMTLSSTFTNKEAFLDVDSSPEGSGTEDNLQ

[27] = target: Luciferin 4-monooxygenase (Photinus pyralis, UniProt P08659); test: firefly luciferase enzyme inhibitors, dose response, biochemical, luminescence (AID 1891)
[28] = Luminescence Cell-Based Dose Confirmation HTS to Identify Inhibitors of Platelet Dense Granule Release. [Related pubchem assays: 1663 (Primary HTS), 1678 (Summary of Project)]; format: functional

Beta-galactosidase, sequence (Q8VNN2 whole entry): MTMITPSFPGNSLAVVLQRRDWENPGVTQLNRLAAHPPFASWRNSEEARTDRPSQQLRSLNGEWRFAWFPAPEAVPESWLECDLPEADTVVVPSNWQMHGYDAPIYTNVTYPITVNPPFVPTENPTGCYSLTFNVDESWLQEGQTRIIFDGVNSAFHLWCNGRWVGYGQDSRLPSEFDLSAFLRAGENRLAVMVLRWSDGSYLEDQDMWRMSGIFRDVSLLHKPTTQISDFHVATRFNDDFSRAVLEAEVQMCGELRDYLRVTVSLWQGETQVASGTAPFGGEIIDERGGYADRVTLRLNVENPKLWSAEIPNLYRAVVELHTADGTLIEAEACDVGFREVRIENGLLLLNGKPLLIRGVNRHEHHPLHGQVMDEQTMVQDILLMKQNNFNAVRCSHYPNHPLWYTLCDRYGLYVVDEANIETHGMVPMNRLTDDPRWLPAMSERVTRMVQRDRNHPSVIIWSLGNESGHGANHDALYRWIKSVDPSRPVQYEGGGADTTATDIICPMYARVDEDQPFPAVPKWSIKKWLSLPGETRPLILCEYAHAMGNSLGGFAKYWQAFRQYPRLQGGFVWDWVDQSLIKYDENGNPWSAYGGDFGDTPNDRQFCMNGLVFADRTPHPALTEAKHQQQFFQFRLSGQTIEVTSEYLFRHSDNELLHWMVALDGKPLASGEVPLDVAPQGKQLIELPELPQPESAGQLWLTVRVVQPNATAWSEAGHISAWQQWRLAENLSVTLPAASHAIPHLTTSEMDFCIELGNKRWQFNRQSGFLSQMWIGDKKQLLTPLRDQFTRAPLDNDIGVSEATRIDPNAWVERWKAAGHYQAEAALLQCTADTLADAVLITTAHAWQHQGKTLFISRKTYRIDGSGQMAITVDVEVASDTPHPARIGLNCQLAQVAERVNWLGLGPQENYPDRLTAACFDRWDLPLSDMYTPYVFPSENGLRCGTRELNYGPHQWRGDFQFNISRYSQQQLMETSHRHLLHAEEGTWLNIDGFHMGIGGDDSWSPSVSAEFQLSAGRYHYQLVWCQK
Beta-lactamase (Salmonella choleraesuis (strain SC-B67), UniProt Q5J463), sequence (Q5J463 whole entry): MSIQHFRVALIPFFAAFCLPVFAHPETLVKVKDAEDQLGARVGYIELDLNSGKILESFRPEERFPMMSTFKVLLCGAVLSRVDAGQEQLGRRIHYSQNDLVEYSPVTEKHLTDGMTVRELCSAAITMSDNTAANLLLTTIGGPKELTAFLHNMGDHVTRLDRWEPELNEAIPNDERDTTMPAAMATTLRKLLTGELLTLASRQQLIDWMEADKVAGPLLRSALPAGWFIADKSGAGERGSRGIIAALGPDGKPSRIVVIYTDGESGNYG
T2 sequence (Q79MP6 whole entry): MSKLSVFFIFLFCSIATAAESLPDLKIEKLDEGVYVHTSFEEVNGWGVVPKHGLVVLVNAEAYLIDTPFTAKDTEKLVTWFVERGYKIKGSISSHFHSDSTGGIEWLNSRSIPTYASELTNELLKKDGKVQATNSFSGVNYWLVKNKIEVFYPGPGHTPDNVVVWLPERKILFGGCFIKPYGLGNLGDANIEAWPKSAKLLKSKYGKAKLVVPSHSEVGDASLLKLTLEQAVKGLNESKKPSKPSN
Disintegrin and metalloproteinase domain-containing protein 17, sequence (P78536 whole entry, the tested form may be a part): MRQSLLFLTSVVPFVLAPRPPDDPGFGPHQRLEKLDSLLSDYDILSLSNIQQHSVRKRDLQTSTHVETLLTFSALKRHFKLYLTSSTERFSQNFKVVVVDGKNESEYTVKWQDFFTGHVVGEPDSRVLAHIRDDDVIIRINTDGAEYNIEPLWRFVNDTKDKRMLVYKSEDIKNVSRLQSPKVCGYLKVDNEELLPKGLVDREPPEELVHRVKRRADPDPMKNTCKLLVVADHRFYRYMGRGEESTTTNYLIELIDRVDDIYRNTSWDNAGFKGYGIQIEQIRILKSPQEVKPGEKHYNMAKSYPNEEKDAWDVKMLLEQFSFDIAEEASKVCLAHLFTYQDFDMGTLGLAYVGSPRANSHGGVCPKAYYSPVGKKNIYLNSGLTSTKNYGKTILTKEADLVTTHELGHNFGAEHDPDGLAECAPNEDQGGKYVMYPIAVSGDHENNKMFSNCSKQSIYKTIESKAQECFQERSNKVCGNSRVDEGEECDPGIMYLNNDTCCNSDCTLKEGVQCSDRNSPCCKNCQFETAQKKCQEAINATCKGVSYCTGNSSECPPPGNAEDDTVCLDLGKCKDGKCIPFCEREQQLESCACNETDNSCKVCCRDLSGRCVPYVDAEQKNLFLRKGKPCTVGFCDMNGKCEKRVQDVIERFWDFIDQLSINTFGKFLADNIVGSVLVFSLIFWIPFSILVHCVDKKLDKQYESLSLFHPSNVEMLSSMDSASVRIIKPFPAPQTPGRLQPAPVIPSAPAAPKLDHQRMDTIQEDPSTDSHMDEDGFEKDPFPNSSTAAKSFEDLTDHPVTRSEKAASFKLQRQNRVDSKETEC
T1 sequence (P11940 whole entry): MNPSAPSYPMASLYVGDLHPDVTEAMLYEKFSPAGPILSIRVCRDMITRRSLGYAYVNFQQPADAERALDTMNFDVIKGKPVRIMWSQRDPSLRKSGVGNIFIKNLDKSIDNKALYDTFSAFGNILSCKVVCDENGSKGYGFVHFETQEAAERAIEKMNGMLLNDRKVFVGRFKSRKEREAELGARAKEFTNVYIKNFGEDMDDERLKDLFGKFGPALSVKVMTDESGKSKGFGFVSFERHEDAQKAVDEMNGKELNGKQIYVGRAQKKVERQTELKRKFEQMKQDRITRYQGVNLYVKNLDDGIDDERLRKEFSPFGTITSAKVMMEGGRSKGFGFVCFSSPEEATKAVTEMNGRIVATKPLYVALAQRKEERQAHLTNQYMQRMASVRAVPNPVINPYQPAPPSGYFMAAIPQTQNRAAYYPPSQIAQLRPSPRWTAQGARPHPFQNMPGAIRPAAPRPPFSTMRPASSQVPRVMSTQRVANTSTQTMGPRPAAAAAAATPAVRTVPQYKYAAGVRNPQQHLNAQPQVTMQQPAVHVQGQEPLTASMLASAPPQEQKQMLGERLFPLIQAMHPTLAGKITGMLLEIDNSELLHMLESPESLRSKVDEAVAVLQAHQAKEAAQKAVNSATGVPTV
Large T antigen, sequence (P03070 whole entry): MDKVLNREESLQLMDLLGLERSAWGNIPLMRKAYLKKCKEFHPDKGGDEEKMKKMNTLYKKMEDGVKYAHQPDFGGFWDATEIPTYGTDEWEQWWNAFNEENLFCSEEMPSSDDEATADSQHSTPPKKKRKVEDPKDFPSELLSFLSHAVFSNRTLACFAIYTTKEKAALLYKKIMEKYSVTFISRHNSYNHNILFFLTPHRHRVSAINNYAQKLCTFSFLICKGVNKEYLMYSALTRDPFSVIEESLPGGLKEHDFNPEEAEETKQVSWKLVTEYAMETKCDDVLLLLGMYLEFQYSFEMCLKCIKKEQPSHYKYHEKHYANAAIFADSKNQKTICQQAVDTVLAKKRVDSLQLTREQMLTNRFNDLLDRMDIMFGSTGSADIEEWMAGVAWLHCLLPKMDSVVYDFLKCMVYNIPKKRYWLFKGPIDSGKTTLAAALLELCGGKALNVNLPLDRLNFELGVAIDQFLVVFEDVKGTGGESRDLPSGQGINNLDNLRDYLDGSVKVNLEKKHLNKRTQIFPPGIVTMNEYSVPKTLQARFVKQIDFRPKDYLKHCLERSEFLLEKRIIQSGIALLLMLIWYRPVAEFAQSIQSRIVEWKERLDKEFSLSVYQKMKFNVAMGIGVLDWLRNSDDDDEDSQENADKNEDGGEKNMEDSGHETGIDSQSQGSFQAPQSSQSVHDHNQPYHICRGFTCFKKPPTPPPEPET
Luciferin 4-monooxygenase, sequence (P08659 whole entry): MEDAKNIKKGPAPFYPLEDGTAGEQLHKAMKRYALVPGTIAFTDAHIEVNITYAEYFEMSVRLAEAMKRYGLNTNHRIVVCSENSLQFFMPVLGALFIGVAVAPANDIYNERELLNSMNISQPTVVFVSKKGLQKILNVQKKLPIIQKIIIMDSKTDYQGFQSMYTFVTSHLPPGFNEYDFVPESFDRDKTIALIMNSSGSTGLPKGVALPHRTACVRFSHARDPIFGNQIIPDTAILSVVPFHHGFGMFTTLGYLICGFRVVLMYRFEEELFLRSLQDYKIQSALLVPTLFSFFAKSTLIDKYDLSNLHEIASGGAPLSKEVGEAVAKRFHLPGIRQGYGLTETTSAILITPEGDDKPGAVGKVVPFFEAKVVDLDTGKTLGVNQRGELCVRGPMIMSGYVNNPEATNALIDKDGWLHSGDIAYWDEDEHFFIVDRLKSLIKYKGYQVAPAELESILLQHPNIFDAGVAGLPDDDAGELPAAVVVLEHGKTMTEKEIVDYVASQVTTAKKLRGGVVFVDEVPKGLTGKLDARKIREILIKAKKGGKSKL
Induced myeloid leukemia cell differentiation protein Mcl-1, sequence (Q07820 whole entry, the tested form may be a part): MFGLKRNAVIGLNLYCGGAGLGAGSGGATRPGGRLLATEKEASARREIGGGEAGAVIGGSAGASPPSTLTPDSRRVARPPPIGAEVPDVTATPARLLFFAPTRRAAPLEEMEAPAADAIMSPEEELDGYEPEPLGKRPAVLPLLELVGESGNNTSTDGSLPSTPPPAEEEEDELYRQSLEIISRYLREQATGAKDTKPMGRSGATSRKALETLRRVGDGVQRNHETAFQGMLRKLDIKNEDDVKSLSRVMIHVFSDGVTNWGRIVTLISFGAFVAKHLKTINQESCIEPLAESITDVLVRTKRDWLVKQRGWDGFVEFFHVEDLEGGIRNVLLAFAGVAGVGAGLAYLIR

CCOC(=O)c1c(CSc2ccc(C)cc2)n(C)c2cc(Br)c(O)c(CN(C)C)c12
EC50 [1]: > 59.6 µM (inactive)
AC50 [2]: 452 nM (active)
CC50 [3]: > 25 µM (active)
EC50 [4]: > 59.6 µM (inactive)
AC50 [5]: 1.32 µM (active)
AC50 [6]: 465 nM (active)
IC50 [7]: > 66 µM (inactive)
IC50 [8]: > 66 µM (inactive)
AC50 [9]: 342 nM (active)
IC50 [10]: 2.7 µM (active)
AC50 [11]: 58.8 µM (active)

O=C(O)C1Sc2[nH]c(=O)sc2C2c3cc(Cl)ccc3OC(=O)C12 (stereo not given)
IC50 [12]: > 59.6 µM (inactive)
IC50 [13]: > 59.6 µM (inactive)
IC50 [14]: > 59.6 µM (inactive)

O=C(CSc1nnc(NC(=O)c2cccc(F)c2)s1)NCc1ccco1
IC50 [12]: > 59.6 µM (inactive)
IC50 [13]: > 59.6 µM (inactive)
IC50 [14]: > 59.6 µM (inactive)

CN1CCN(C2=C(NS(=O)(=O)c3cccs3)C(=O)c3ccccc3C2=O)CC1
AC50 [15]: 6.98 µM (active)
AC50 [16]: > 70 µM (inactive)
AC50 [17]: 5.87 µM (active)

C=CCn1c(-c2csc3c2CCC(C)C3)n[nH]c1=S (stereo not given)
IC50 [18]: > 69.4 µM (inactive)

C=CCn1c(S)nnc1-c1csc2c1CCC(C)C2 (stereo not given)
IC50 [19]: > 69.4 µM (inactive)

CCc1cc(=O)oc2c(C)c(OCC(=O)N3CCC[C@@H]3C(=O)O)ccc12
IC50 [20]: 1.65 µM (active)
IC50 [12]: > 59.6 µM (inactive)
IC50 [13]: > 59.6 µM (inactive)
IC50 [14]: > 59.6 µM (inactive)

CCOc1ccc(NC(S)=Nc2ccc(OC(F)(F)F)cc2)cc1
IC50 [21]: > 80 µM (inactive)
EC50 [22]: > 195 µM (not active)

O=C1CCCCC1C(Nc1ccc(Cl)cc1)c1ccccc1 (stereo not given)
IC50 [19]: 34.3 µM (inactive)
IC50 [18]: > 69.5 µM (inactive)

O=C1ON=C(c2ccccc2)/C1=C/c1ccc(O)c(O)c1
IC50 [23]: 60 µM (active)
IC50 [24]: 5.22 µM (active)
CC50 [25]: 73.7 µM (active)
IC50 [26]: 4.37 µM (active)

CCOc1cc(/C=C2\C(=O)ON=C2c2ccccc2)cc(Br)c1O
IC50 [23]: 61.2 µM (active)
CC50 [3]: 17.8 µM (active)
CC50 [25]: 100 µM (active)

COc1ccc(N2CCC(CN=C(S)Nc3cccc(OC)c3)C2)cc1 (stereo not given)
IC50 [19]: > 69.5 µM (inactive)

COc1ccc(N2CCC(CNC(=S)Nc3cccc(OC)c3)C2)cc1 (stereo not given)
IC50 [18]: > 69.5 µM (inactive)

O=C(c1cc2cc(Cl)ccc2[nH]1)N1CCN(c2ccc(F)cc2)CC1
IC50 [21]: > 80 µM (inactive)

COc1ccc(N2CCN(C(=O)c3cc(=O)c4cc(Cl)ccc4o3)CC2)cc1
IC50 [21]: > 80 µM (inactive)

O=C(Nc1ccccc1C(=O)N/N=C/c1ccc(O)cc1)c1ccccc1
IC50 [23]: 220 µM (active)
CC50 [25]: 39.5 µM (active)
EC50 [27]: 184 nM (active)
EC50 [28]: 3.65 µM (active)
